# From US4061757A, “Compounds having juvenile hormone activity” (A/S Cheminova, priority 1971, dated 1977)
# Legend:
# [1] = system: Tenebrio molitor L; test: Tenebrio test (topical application to pupae, morphological inhibition of adult characters); format: in vivo, Tenebrio molitor L (yellow mealworm); conditions: for ID-50 morph.: Table I, topical, acetone solution, 0.5 to 2 hours old pupae (150 mg), 27° C, 70% RH; for ID 50 morph.: Table II, compounds of the formula I, Tenebrio
# Procedure: (§1) The biological tests are examplified by tests on the yellow mealworm, Tenebrio molitor L, Galleria mellonella L, Culex pipiens L, Aedes aegypti L and Drosophila melanogaster L.
# Tenebrio test: The material in question is applied topically to the abdomen of 0.5 to 2 hours old pupae of the said species, as a solution in acetone. The pupae are held at 27° C and 70% RH, ecdysis occuring 5 to 7 days later. The degree of inhibition of adult characters is referred to an arbitrary scale, where a morphologically perfect adult is given the character 0%, and a perfect second pupae 100%. In Table 1 is given the morphological inhibition dose 50% (ID 50 morph.) for some of the chemicals invented, in μg per standard pupa (150 mg). ID 50 morph. refers to specimens showing predominantly adult characters in the front part, pupal characters in the abdomen.
# ID50 morph is as said above the dose causing development of individuals showing predominantly adult characters in the front part and pupal characters in the abdomen. It is known that ID50 -doses in general are 10 times greater than ED50 -doses.
# [2] = system: Culex pipiens L; test: Culex test (mature larvae, loss of 50% of test animals); format: in vivo; conditions: Table I, read-out: IC-50 eclos.
# Procedure: The biological tests are examplified by tests on the yellow mealworm, Tenebrio molitor L, Galleria mellonella L, Culex pipiens L, Aedes aegypti L and Drosophila melanogaster L. Culex test: The compounds are tested on mature larvae. The concentration (IC-50 eclos.) is given in ppm.
# [3] = system: Drosophila melanogaster L; test: Drosophila test (compound in agar based food, pupae which fail in ecdysis); format: in vivo; conditions: Table I, in artificial agar based food, pupae failing in ecdysis
# Procedure: as §1
# Drosophila test: One ml of acetone solution of the compound to be tested is mixed with an artificial agar based food mixture just before this solidifies. Ten less than one day old adult flies -- five of each sex -- are added, and all abnormalities observed for two generations. Juvenile hormone activity is especially noted in the pupae which fail in ecdysis. EC50 -eclos. is given in ppm.
# [4] = system: Aedes aegypti L; test: Aedes test (same test as for Culex); format: in vivo; conditions: Table I, mature larvae, loss of 50% of test animals, read-out: IC-50 eclos
# Procedure: as §1
# Culex test: The compounds are tested on mature larvae. The concentration (IC-50 eclos.) is given in ppm.
# Aedes test: The same test as for Culex.
Structure (SMILES),ID-50 morph. [1] [μg/pupa],ID 50 morph. [1],IC50 for inhibition of adult emergence (eclosion) [2] [µg/mL],EC-50 eclos [3] [ppm],IC50 (inhibition of eclosion) [4] [µg/mL]
"CC(C)=CCC/C(C)=C/COc1ccc(C)nc1 [Compound 1, 3,7-dimethyl-1-(6'-methyl-3'-pyridyl-oxy)-2,6-octadiene]",0.02,"0,02 μg/150 mg pupa",0.5,> 100,0.5
"CCOC(C)(CC)CCCC(=CCOc1ccc(C)nc1)CC (stereo not shown) [Compound 23, 7-Ethoxy-3-ethyl-7-methyl-1l-(6'-methyl-3'-pyridyloxy)-2-nonene]",0.001,,0.5,,
"CCOC(C)(C)CCCC(C)CCOc1ccc(CC)nc1 (stereo not shown) [Compound 39, 7-Ethoxy-3,7-dimethyl-1l-(96'-ethyl-3'-pyridyloxy)-octane]",0.01,,< 10,> 100,0.5
"CC(C)=CCCC(C)CCOc1ccc(C)nc1 (stereo not shown) [Compound 34, 3,7-dimethyl-1-(6'-methyl-3'-pyridyloxy)-6-octene]",0.4,,0.5,,
"CCC(C)=CCCC(=CCOc1cccnc1)CC [Compound 18, 3-Ethyl-7-methyl-1-(3'-pyridyloxy)-2,6-nonadiene]",0.2,,,,
"C/C(=C\COc1ccc(C)nc1)CCC1OC1(C)C (stereo not shown) [Compound 2, 6,7-epoxy-3,7-dimethyl-1-(6'-methyl-3'-pyridyloxy)-2-octene]",0.002,,,,0.1
"CCC(=CCOc1ccc(C)nc1)CCC1OC1(C)CC (stereo not shown) [Compound 14, 6,7-Epoxu-3-ethyl-7-methyl-1-(6'-methyl-3'-pyridyloxy)-2-nonene]",0.002,,,,
"CC(C)=CCCC(C)CCOc1cccnc1 (stereo not shown) [Compound 32, 3,7-Dimethyl-1-(3'-pyridyloxy)-6-octene]",5.,,0.2,,
"CCC(=CCOc1cccnc1)CCC1OC1(C)CC (stereo not shown) [Compound 19, 6,7-Epoxy-3-ethyl-7-methyl-1-(3'-pyridyloxy)-2-nonene]",0.02,,,,
"CCc1ccc(OCC=C(C)CCCC(C)(C)OC)cn1 [Compound 28, 7-Methoxy-3,7-dimethyl-1-(6'-ethyl-3'-pyridyloxy)-2-octene]",0.001,,,,
"CCOC(C)(C)CCCC(C)=CCOc1cccnc1 [Compound 16, 7-Ethoxy-3,7-dimethyl-1-(3'-pyridyloxy)-2-octene]",0.009,,,,
"CC(C)=CCC/C(C)=C/CNc1cccnc1 [Compound 5, N,3'-3,7-dimethyl-2,6-octadienyl-1-(3'-a-minopyridine)]",40.0,,10,,
"CCc1ccc(OCC=C(C)CCC=C(C)C)cn1 [Compound 7, 3,7-Dimethyl-1-(6'-ethyl-3'-pyridyloxy)-2,6-octadiene]",0.005,,0.05,> 100,
"CCOC(C)(C)CCCC(C)CCOc1ccc(C)nc1 (stereo not shown) [Compound 36, 7-Ethoxy-3,7-dimethyl-1-(6'-methyl-3'-pyridyloxy)-octane]",0.05,,,> 100,
"CCC(C)=CCCC(=CCOc1ccc(CC)nc1)CC [Compound 11, 3-EThyl-7-methyl-1-(6'-ethyl-3'-pyridyloxy)-2,6-nonadiene]",0.001,,,,
"COC(C)(C)CCCC(C)=CCOc1ccc(C)nc1 [Compound 21, 7-Metoxy-3,7-dimethyl-1-(6'-methyl-3'-pyridyloxy)-2-octene]",1.0,,< 10,,1
"CC(C)=CCCC(C)=CCOc1cccnc1 [Compound 6, 3,7-Dimethyl-1-(3'-pyridyloxy)-2,6-octadiene]",3.0,,,,
"COc1ccc(NCC=C(C)CCC=C(C)C)cn1 [Compound 17, N, 3'-3,7-Dimethyl-2,6-octadienlyl-(6'methoxy-3'-aminopyridin)]",0.4,,,,
"CCOC(C)(C)CCC/C(C)=C/COc1ccc(C)nc1 [Compound 3, 7-ethoxy-3,7-dimethyl-1-(6'-methyl-3'-pyridyloxy)-2-octene]",0.001,,< 10,,

Structure (SMILES),ID-50 morph. [1] [μg/pupa],ID 50 morph. [1],IC50 for inhibition of adult emergence (eclosion) [2] [µg/mL],EC-50 eclos [3] [ppm],IC50 (inhibition of eclosion) [4] [µg/mL]
"CCC(C)=CCCC(=CCOc1ccc(C)nc1)CC [Compound 10, 3-Ethyl-7-methyl-1l-(6'-methyl-3'-pyridyloxy)-2,6-nonadiene]",0.002,,,,
"CC(C)=CCCC(C)=CCOc1cccnc1C [Compound 26, 3,7 Dimethyl-1-(2'-methyl-3'-pyridyloxy)-2,6-octadiene]",10.,,,,
"CCc1ccc(OCC=C(C)CCC2OC2(C)CC)cn1 (stereo not shown) [Compound 30, 6,7-Epoxy-3,7-dimethyl-1l-(6'-ethyl-3'-pyridyloxy)-2l-nonene]",0.0003,,< 10,> 100,0.5
"CCc1ccc(OCC=C(C)CCC2OC2(C)C)cn1 (stereo not shown) [Compound 13, 6,7-Epoxy-3,7-dimethyl-1l-(6'-ethyl-3'-pyridyloxy)-2l-octene]",0.0001,,0.005,> 100,0.1
"CC(C)=CCCC(C)=CCOc1ccc(C(C)C)nc1 [Compound 8, 3,7-Dimethyl-1-(6'-isopropyl-3'-pyridyloxy)-2,6-octadiene]",0.004,,,,
"Cc1ccc(OCCC(C)CCC2OC2(C)C)cn1 (stereo not shown) [Compound 35, 6,7-epoxy-3,7-dimethyl-1-(6'-methyl-3'pyridyloxy)-octane]",0.05,,,,
"CCOC(C)(C)CCCC(C)=CCOc1ccc(CC)nc1 [Compound 27, 7-Ethoxy-3,7-dimethyl-1-(6'-ethyl-3'-pyridyloxy)-2-octene]",0.0001,,< 1,> 100,
"COC(C)(C)CCCC(C)=CCOc1cccnc1 [Compound 20, 7-Methoxy-3,7-dimethyl-1l-(3'-pyridyloxy)-2-ocetene]",1.0,,,,
"CCC(=CCOc1ccc(CC)nc1)CCC1OC1(C)CC (stereo not shown) [Compound 15, 6,7 Epoxy-3-ethyl-7-methyl-1-(6'-ethyl-3'-pyridyloxy)-2l-nonene]",0.0001,,,,
"CCc1ccc(OCCC(C)CCC=C(C)C)cn1 (stereo not shown) [Compound 37, 3,7-dimethyl-1-(6'-ethyl-3'-pyridyloxy)-6-octene]",0.2,,,> 100,
"CC(C)=CCCC(C)=CCOc1ccc(C)nc1CO [Compound 31, 3,7-Dimethyl-1-(2'-hydroxymethyl-6'-methyl-3'pyridyloxy)-2,6-octadiene]",10,,> 10,,
"CCOC(C)(CC)CCCC(=CCOc1cccnc1)CC (stereo not shown) [Compound 22, 7-Ethoxy-3-ethyl-7-methyl-1-(3'-pyridyloxy)-2-nonene]",0.01,,,,
"CCc1ccc(OCCC(C)CCCC(C)(C)OC)cn1 (stereo not shown) [Compound 40, 7-Methoxy-3,7-dimethyl-1l-(6'-ethyl-3'-pyridyloxy)-octane]",0.02,,,> 100,
"C/C(=C\COc1ccc(C)nc1)CCCC(C)(C)O [Compound 4, 7-hydroxy-3,7-dimethyl-1-(6'-methyl-3'-pyridyloxy)-2-octene]",4.0,,,,
"CCC(C)=CCCC(C)=CCOc1ccc(CC)nc1 [Compound 29, 3,7-Dimethyl-1-(6'-ethyl-3'-pyridyloxy)-2,6-nonadiene]",0.02,,,> 100,
"CC(C)=CCCC(C)=CCOc1cccnc1CO [Compound 25, 3,7-Dimethyl-1-(2'-hydroxymethyl-3'-pyridyloxy)-2,6-octadiene]",10.,,,,
"COc1ccc(OCC=C(C)CCC=C(C)C)cn1 [Compound 9, 3,7-Dimethyl-1-(6'-methoxy-3'-pyridyloxy)-2,6-acetadiene]",0.02,"0,02 μg/150 mg pupa",,,
"CC(=CCOc1cccnc1)CCC1OC1(C)C (stereo not shown) [Compound 12, 6,7-Epoxy-3,7-dimethyl-1l-(3'-pyridyloxy)-2-ocetene]",0.2,,,,
"CC(C)=CCCC(C)=CCOc1ccc(C)nc1[N+](=O)[O-] [Compound 24, 3,7-Dimethyl-1l-(2'-nitro-6'-methyl-3'-pyridyloxy)-2,6-octadiene]",75.,,> 10,,
